The text below walks through data of paper PMC10328330 (PLOS ONE, 2023).

The subject of data set [1] is T. gondii (ME49 strain). Briefly: Efficacy in mice chronically infected with T. gondii (brain cysts, qPCR parasite burden). The format is in vivo, Toxoplasma gondii. As to conditions: C57BL/6 mice chronically infected with ME49. The method, then:
Chronic infection in Male C57/BL/6 mice (4 weeks-old) was obtained by intraperitoneal injection of brain tissue cysts (ME49 strain) as previously described. The cysts were obtained by directly macerating the brain tissue of previously chronically infected mice in 5 mL of saline solution. The resulting mixture was then subjected to a counting procedure using a Neubauer chamber under a microscope to determine the concentration of the cysts. To prepare the cysts for injection, they were further diluted in saline solution to achieve the desired concentration of 10 cysts per animal. Subsequently, the mice in the experiment were infected with these freshly obtained brain cysts via intraperitoneal injection. The animals were considered chronically infected 40 days post-infection, according to the protocol described by. […] Additionally, the presence of brain cysts, known to be responsible for the observed symptoms, further confirmed the chronic infection status.
Forty days after infection, chronically infected mice were randomly assigned into experimental groups (n = 4 per group). […] On day 51 post-infection, all animals were euthanized, and their brains were collected for analyses. The brains were used for microscopic counting of cysts, measurement of cysts area, RNA extraction, and quantification. For microscopic counting, 25 μL of macerated organ was utilized, while 200 μL was used for RNA extraction. Cysts area was measured using ImageJ software, available at https://imagej.nih.gov/ij/.
We performed a serial dilution of cultured tachyzoites of T. gondii (RH strain), ranging from 5×10^6 to 7.8×10^4 forms per mL. DNA samples were extracted from each point of the serial dilution (in duplicate samples), and real-time PCR was performed. The resulting data were used to plot the cycle threshold value (CT) against varying amounts of parasites, ultimately generating a standard curve. […]
Each DNA and cDNA samples were analysed by quantitative real-time PCR using the set of primers Rep529, which amplified a T. gondii repetitive DNA fragment. […]

For data set [2], the system named is mice. Set-up: method as in PMID 23791825. As to conditions: cited from earlier work.

Structures are written as SMILES.

As a reminder, the LD50 is the dose expected to kill half of the subjects tested.

Turning to `C=CCNc1nc(NCC=C)nc(N2CCN(C(c3ccc(F)cc3)c3ccc(F)cc3)CC2)n1` [almitrine bismesylate], in data set [1] (25 mg/kg/day oral for 10 days, RNA of living parasites by qPCR, vs vehicle control group), the “parasite burden in the brains (real-time PCR)” value is “statistically significant (p < 0.001) reduction”. In data set [1] (12.5 and 25 mg/kg/day oral for 10 days from day 40 post-infection, microscopy of brain macerates, ImageJ, vs vehicle), the cysts area result is recorded as “significant reduction (p < 0.05)”. In addition, in data set [1] (12.5 and 25 mg/kg/day oral for 10 days from day 40 post-infection, microscopy of brain macerates, vs vehicle), the “number of brain cysts” value is “significant reduction (p < 0.05)”. Moreover, in data set [2], the median lethal dose (LD50) is over 200 mg/kg.
